{
  "source": "patent US9989519B1",
  "about": "“Method for determining in vitro bioequivalence of a sucralfate suspension sample to a sucralfate suspension reference listed drug (RLD)” (Clayton Pharmaceuticals, LLC, priority 2017, dated 2018)",
  "tested_on": "Caco-2 cell monolayers",
  "experiment": "Indomethacin-induced damage (loss of TEER) in Caco-2 cell monolayers, assay development",
  "assay_type": "cell-based, human",
  "method": "Considering the fact that the Caco-2 cell model mimics the human intestinal mucosa, and that the intraluminal pH of the small intestine ranges from approximately 6.0 to 7.4, evaluation of the damage induced by indomethacin (the chosen ulcerogenic agent, the use of which was previously reported) was performed at these two pH conditions. The choice of 0.75 mM indomethacin was based on earlier observations reported for a similar evaluation using Caco-2 cells for this initial assay development stage. For each pH condition, the damage was measured by comparing the TEER values of indomethacin-treated cell monolayers with those of control cell monolayers before and after the assay, and the % of TEER remaining (compared to the control treatment) was calculated. The results are illustrated below in FIG. 7. […] In contrast, for the assay with the pH condition of 6.0, approximately 50% of the TEER was lost by two hours and nearly 80% of the TEER was lost by the end of the assay duration of 5 hours. […] Therefore, pH 6.0 was selected as the optimal pH condition on the apical (modeling the luminal) side for this assay. It was also noted that the majority of the damage was caused between 2 and 3 hours of duration; any additional damage after three hours was marginal. For this reason, further evaluations were performed at a truncated duration of 2 to 3 hours. Considering the fact that significant damage to the cells was induced post two hours in the assessment above and the fact that a shorter assay duration would be desirable for the purposes of experimental logistics, different concentrations (1, 1.5 and 2 mM) of indomethacin were tested to understand the extent of damage caused to the cell monolayers as a function of indomethacin concentration using apical pH of 6.0 and a 3 hour duration. […] Therefore, a concentration of 2 mM was selected as the optimal concentration for this assay.",
  "data": [
    {"smiles": "COc1ccc2c(c1)c(CC(=O)O)c(C)n2C(=O)c1ccc(Cl)cc1", "note": "[indomethacin]", "values": [
      {"measurement": "damage to the cell monolayers as a function of indomethacin concentration", "setting": "2 mM (1, 1.5 and 2 mM tested), apical pH 6.0, 3 hour duration", "value": "Maximum damage"},
      {"measurement": "TEER lost", "setting": "indomethacin 0.75 mM, apical pH 6.0, 5 hours", "value": "~80", "unit": "%"},
      {"measurement": "TEER lost", "setting": "indomethacin 0.75 mM, apical pH 6.0, two hours", "value": "approximately 50%"},
      {"measurement": "loss of TEER", "setting": "indomethacin 0.75 mM, pH 7.4, 5 hours", "value": "a significant loss of TEER was not observed"}
    ]}
  ]
}
